ChEMBL document CHEMBL5104124, “Recent advances on synthesis and biological activities of C-17 aza-heterocycle derived steroids” (Bioorg Med Chem, 2022)

Columns and labels:
CCRF-CEM [1] = assay: Antiproliferative activity against human CEM cells assessed as cell growth inhibition; type: functional, cell-based
HT-29 = assay: Antiproliferative activity against human HT-29 cells assessed as cell growth inhibition; type: functional, cell-based
[2] = Antiproliferative activity against human HMEC-1 cells assessed as cell growth inhibition; type: toxicity, cell-based
MDA-MB-231 = assay: Antiproliferative activity against human MDA-MB-231 cells assessed as cell growth inhibition; type: functional, cell-based
HeLa [3] = assay: Antiproliferative activity against human HeLa cells assessed as cell growth inhibition; type: functional, cell-based
[4] = Antiproliferative activity against African green monkey Vero cells assessed as cell growth inhibition; type: toxicity, cell-based; conditions: African green monkey (Chlorocebus sabaeus)
[5] = Antiangiogenesis activity in Bovine BAEC cells assessed as increase in tube formation incubated for 18 hrs by microscopic analysis; type: functional, cell-based; conditions: Bos taurus
Tubulin = Tubulin (Sus scrofa, UniProt P02554+P02550); assay: Inhibition of porcine brain tubulin polymerization preincubated for 30 mins followed by GTP addition by absorbance based analysis; type: tissue-based
HepG2 [6] = assay: Antiproliferative activity against human HepG2 cells assessed as cell growth inhibition measured after 24 hrs by MTT assay; type: functional, cell-based; conditions: HepG2, 24 h
CCRF-CEM [7] = assay: Antiproliferative activity against human CEM cells assessed as cell growth inhibition measured after 4 days by coulter counter assay; type: functional, cell-based; conditions: 96 h
[8] = Antiproliferative activity against human HMEC-1 cells assessed as cell growth inhibition measured after 4 days by coulter counter assay; type: toxicity, cell-based
HeLa [9] = assay: Antiproliferative activity against human HeLa cells assessed as cell growth inhibition measured after 4 days by coulter counter assay; type: functional, cell-based; conditions: 96 h
[10] = molecular target: 3-oxo-5-alpha-steroid 4-dehydrogenase 2 (Rattus norvegicus, UniProt P31214); assay: Inhibition of rat liver microsomal SRD5A2 incubated for 60 mins by thin layer chromatography; type: microsomes, Microsome
3-oxo-5-alpha-steroid 4-dehydrogenase 2 (Rattus norvegicus, UniProt P31214), sequence (P31214 whole entry): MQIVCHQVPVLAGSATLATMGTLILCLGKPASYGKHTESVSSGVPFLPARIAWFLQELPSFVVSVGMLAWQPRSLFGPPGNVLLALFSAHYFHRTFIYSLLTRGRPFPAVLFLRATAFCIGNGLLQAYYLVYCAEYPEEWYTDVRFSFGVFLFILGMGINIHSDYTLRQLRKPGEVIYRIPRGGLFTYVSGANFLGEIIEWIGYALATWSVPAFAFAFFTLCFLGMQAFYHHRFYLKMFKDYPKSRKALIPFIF

[11] = molecular target: 3-oxo-5-alpha-steroid 4-dehydrogenase 1 (Rattus norvegicus, UniProt P24008); assay: Inhibition of rat liver microsomal SRD5A1 incubated for 60 mins by thin layer chromatography; type: microsomes, Microsome
3-oxo-5-alpha-steroid 4-dehydrogenase 1 (Rattus norvegicus, UniProt P24008), sequence (P24008 whole entry): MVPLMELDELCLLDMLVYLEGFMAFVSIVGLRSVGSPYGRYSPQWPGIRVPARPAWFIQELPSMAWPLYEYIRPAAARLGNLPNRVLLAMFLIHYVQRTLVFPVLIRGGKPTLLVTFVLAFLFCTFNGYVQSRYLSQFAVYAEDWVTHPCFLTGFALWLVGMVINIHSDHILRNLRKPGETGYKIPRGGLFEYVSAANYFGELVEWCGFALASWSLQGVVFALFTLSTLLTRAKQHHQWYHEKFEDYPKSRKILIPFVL

Staphylococcus aureus [12] = assay: Antibacterial activity against Staphylococcus aureus ATCC 25923 assessed as inhibition of bacterial growth measured after 24 hrs by CLSI protocol based microdilution assay; type: functional
Staphylococcus aureus [13] = assay: Antibacterial activity against methicillin resistant Staphylococcus aureus chicken isolate assessed as inhibition of bacterial growth measured after 24 hrs by CLSI protocol based microdilution assay; type: functional
Staphylococcus aureus [14] = assay: Antibacterial activity against methicillin resistant Staphylococcus aureus ATCC 25923 assessed as inhibition of bacterial growth measured after 24 hrs by CLSI protocol based microdilution assay; type: functional
Escherichia coli = assay: Antibacterial activity against Escherichia coli DSM 10233 assessed as inhibition of bacterial growth measured after 24 hrs by CLSI protocol based microdilution assay; type: functional
Bacillus cereus = assay: Antibacterial activity against Bacillus cereus ATCC 11778 assessed as inhibition of bacterial growth measured after 24 hrs by CLSI protocol based microdilution assay; type: functional
Staphylococcus aureus [15] = assay: Antibacterial activity against methicillin resistant Staphylococcus aureus ATCC 43300 assessed as inhibition of bacterial growth measured after 24 hrs by CLSI protocol based microdilution assay; type: functional
Brevibacterium = assay: Antibacterial activity against Brevibacterium assessed as inhibition of bacterial growth measured after 24 hrs by CLSI protocol based microdilution assay; type: functional
Candida albicans = assay: Antifungal activity against Candida albicans ATCC 10231 assessed as fungal growth inhibition measured after 24 hrs by CLSI protocol based microdilution assay; type: functional
Enterococcus faecalis = assay: Antibacterial activity against Enterococcus faecalis ATCC 19433 assessed as inhibition of bacterial growth measured after 24 hrs by CLSI protocol based microdilution assay; type: functional
Staphylococcus aureus [16] = assay: Antibacterial activity against methicillin resistant Staphylococcus aureus human isolate assessed as inhibition of bacterial growth measured after 24 hrs by CLSI protocol based microdilution assay; type: functional
Corynebacterium sp. = assay: Antibacterial activity against Corynebacterium assessed as inhibition of bacterial growth measured after 24 hrs by CLSI protocol based microdilution assay; type: functional
LNCaP = assay: Antiproliferative activity against human LNCaP cells assessed as cell growth inhibition measured after 96 hrs by MTT assay; type: functional, cell-based
PC-3 = assay: Antiproliferative activity against human PC-3 cells assessed as cell growth inhibition measured after 96 hrs by MTT assay; type: functional, cell-based; conditions: PC-3, 96 h
[17] = molecular target: 3-oxo-5-alpha-steroid 4-dehydrogenase 1 (Homo sapiens, UniProt P18405); assay: Inhibition of human prostate SRD5A1 incubated for 60 mins by scintillation counter; type: tissue-based, Prostate gland
3-oxo-5-alpha-steroid 4-dehydrogenase 1 (Homo sapiens, UniProt P18405), sequence (P18405 whole entry): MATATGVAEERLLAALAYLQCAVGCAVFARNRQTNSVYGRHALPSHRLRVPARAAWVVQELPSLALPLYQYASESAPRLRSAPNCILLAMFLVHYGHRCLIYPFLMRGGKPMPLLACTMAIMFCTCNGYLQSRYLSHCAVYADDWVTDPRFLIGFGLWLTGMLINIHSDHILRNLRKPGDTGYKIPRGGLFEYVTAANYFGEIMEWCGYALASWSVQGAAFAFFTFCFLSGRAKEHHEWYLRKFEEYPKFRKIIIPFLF

[18] = molecular target: 3-oxo-5-alpha-steroid 4-dehydrogenase 2 (Homo sapiens, UniProt P31213); assay: Inhibition of SRD5A2 in HEK293 incubated for 60 mins by thin layer chromatography; type: cell-based
3-oxo-5-alpha-steroid 4-dehydrogenase 2 (Homo sapiens, UniProt P31213), sequence (P31213 whole entry): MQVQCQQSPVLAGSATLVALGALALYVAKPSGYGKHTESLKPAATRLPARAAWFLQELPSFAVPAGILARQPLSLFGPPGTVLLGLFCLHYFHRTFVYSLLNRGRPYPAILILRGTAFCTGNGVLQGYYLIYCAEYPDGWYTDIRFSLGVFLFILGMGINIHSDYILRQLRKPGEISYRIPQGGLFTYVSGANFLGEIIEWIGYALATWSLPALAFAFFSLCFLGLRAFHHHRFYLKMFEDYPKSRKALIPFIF

[19] = Inhibition of Wistar rat testicular 3beta-HSD incubated for 20 mins by liquid scintillation counting analysis; type: tissue-based, Testis
SGC-7901 = assay: Antiproliferative activity against human SGC-7901 cells assessed as cell growth inhibition by MTT assay; type: functional, cell-based
HepG2 [20] = assay: Antiproliferative activity against human HepG2 cells assessed as cell growth inhibition by MTT assay; type: functional, cell-based
Huh-7 = assay: Antiproliferative activity against human Huh-7 cells assessed as cell growth inhibition by MTT assay; type: functional, cell-based
EC9706 = assay: Antiproliferative activity against human EC9706 cells assessed as cell growth inhibition measured after 72 hrs by MTT assay; type: functional, cell-based; conditions: EC9706, 72 h
MGC-803 = assay: Antiproliferative activity against human MGC-803 cells assessed as cell growth inhibition measured after 72 hrs by MTT assay; type: functional, cell-based; conditions: MGC-803, 72 h
ECa-109 cell line = assay: Antiproliferative activity against human EC109 cells assessed as cell growth inhibition measured after 72 hrs by MTT assay; type: functional, cell-based; conditions: ECa-109, 72 h
[21] = Antiproliferative activity against human WM35 cells assessed as cell growth inhibition measured after 5 days by MTT assay; type: functional, cell-based; conditions: WM35, 120 h
K562 = assay: Antiproliferative activity against human K562 cells assessed as cell growth inhibition measured after 5 days by MTT assay; type: functional, cell-based; conditions: K562, 120 h
OVCAR-3 = assay: Antiproliferative activity against human OVCAR-3 cells assessed as cell growth inhibition measured after 5 days by MTT assay; type: functional, cell-based; conditions: OVCAR-3, 120 h
MCF7 [22] = assay: Antiproliferative activity against human MCF7 cells assessed as cell growth inhibition measured after 72 hrs by MTT assay; type: functional, cell-based; conditions: MCF7, 72 h
T47D = assay: Antiproliferative activity against human T47D cells assessed as cell growth inhibition measured after 72 hrs by MTT assay; type: functional, cell-based
MDA-MB-361 = assay: Antiproliferative activity against human MDA-MB-361 cells assessed as cell growth inhibition measured after 72 hrs by MTT assay; type: functional, cell-based; conditions: MDA-MB-361, 72 h
MCF7 [23] = assay: Antiproliferative activity against human MCF7 cells assessed as cell growth inhibition; type: functional, cell-based
HepG2 [24] = assay: Antiproliferative activity against human HepG2 cells assessed as cell growth inhibition; type: functional, cell-based
SK-OV-3 = assay: Antiproliferative activity against human SK-OV-3 cells assessed as cell growth inhibition; type: functional, cell-based

SMILES: COc1cc2c(cc1OS(N)(=O)=O)CC[C@@H]1[C@@H]2CC[C@]2(C)C(c3cncc(Cl)c3)=CC[C@@H]12
- IC50 (CCRF-CEM [1]): 0.039 µM
- IC50 (HT-29): 0.11 µM
- IC50 [2]: 0.4 µM
- IC50 (MDA-MB-231): 0.11 µM
- IC50 (HeLa [3]): 0.37 µM
- IC50 [4]: 0.03 µM
- IC50 [5]: 0.2 µM
- IC50 (Tubulin): 2.1 µM

SMILES: COc1ccncc1C1=CC[C@H]2[C@@H]3CC=C4C[C@@H](OC(=O)[C@H](O)[C@@H](NC(=O)c5ccccc5)c5ccccc5)CC[C@]4(C)[C@H]3CC[C@]12C
- IC50 (HepG2 [6]): 67.7 µM

SMILES: C[C@]12CC[C@H](O)CC1=CC[C@@H]1[C@@H]2CC[C@]2(C)C(c3ccc4[nH]ccc4c3)=CC[C@@H]12
- IC50 (CCRF-CEM [7]): 1.5 µM
- IC50 at 4 days [8]: 0.59 µM
- IC50 (HeLa [9]): 2.9 µM

SMILES: COc1cc2c(cc1OS(N)(=O)=O)CC[C@@H]1[C@@H]2CC[C@]2(C)C(c3ccnc(Cl)c3)=CC[C@@H]12
- IC50 (CCRF-CEM [1]): 0.26 µM
- IC50 (HT-29): 0.43 µM
- IC50 [2]: 2.3 µM
- IC50 (HeLa [3]): 1.6 µM
- IC50 [4]: 1.3 µM
- IC50 [5]: 0.1 µM
- IC50 (Tubulin): 2.3 µM

SMILES: C[C@]12CC[C@H](O)CC1=CC[C@@H]1[C@@H]2CC[C@]2(C)C(n3cnc4ccccc43)=C(C=O)C[C@@H]12
- IC50 [10]: 0.127 µM

SMILES: C[C@]12CC[C@H](OC(=O)C3CC3)CC1=CC[C@@H]1[C@@H]2CC[C@]2(C)C(n3cnc4ccccc43)=C(C=O)C[C@@H]12
- IC50 [10]: 0.004 µM
- IC50 [11]: 0.32 µM

SMILES: CCCCCCn1c[n+](CCCCCC)c2c1[C@@]1(C)CC[C@H]3[C@@H](CC=C4C[C@@H](O)CC[C@@]43C)[C@@H]1C2.[I-]
- MIC (Staphylococcus aureus [12]): 0.5 µg/mL
- MIC (Staphylococcus aureus [13]): 1 µg/mL
- MIC (Staphylococcus aureus [14]): 0.5 µg/mL
- MIC (Escherichia coli): 4 µg/mL
- MIC (Bacillus cereus): 1 µg/mL
- MIC (Staphylococcus aureus [15]): 1 µg/mL
- MIC (Brevibacterium): 0.5 µg/mL
- MIC (Candida albicans): 1 µg/mL
- MIC (Enterococcus faecalis): 4 µg/mL
- MIC (Staphylococcus aureus [16]): 1 µg/mL
- MIC (Corynebacterium sp.): 8 µg/mL

SMILES: C[C@]12CC[C@H](O)CC1=CC[C@@H]1[C@@H]2CC[C@]2(C)C(c3nc4ccccc4[nH]3)=CC[C@@H]12
- IC50 (LNCaP): 3.8 µM
- IC50 (PC-3): 6.9 µM

SMILES: C[C@]12CC[C@H](O)CC1=CC[C@@H]1[C@@H]2CC[C@]2(C)C(c3ccn(-c4ccc(Cl)cc4)n3)=CC[C@@H]12
- IC50 [17]: 0.0142 µM
- IC50 [18]: 0.0353 µM

SMILES: COC(=O)c1cc([C@H]2CC[C@H]3[C@@H]4CCC5=CC(=O)CC[C@]5(C)[C@H]4CC[C@]23C)n(-c2ccc(OC)cc2)n1
- IC50 [19]: 0.42 µM

SMILES: CCCCCCCn1c[n+](CCCCCCC)c2c1[C@@]1(C)CC[C@H]3[C@@H](CC=C4C[C@@H](O)CC[C@@]43C)[C@@H]1C2.[I-]
- MIC (Staphylococcus aureus [12]): 0.25 µg/mL
- MIC (Staphylococcus aureus [13]): 0.5 µg/mL
- MIC (Staphylococcus aureus [14]): 1 µg/mL
- MIC (Escherichia coli): 4 µg/mL
- MIC (Bacillus cereus): 0.5 µg/mL
- MIC (Staphylococcus aureus [15]): 1 µg/mL
- MIC (Brevibacterium): 0.25 µg/mL
- MIC (Candida albicans): 1 µg/mL
- MIC (Enterococcus faecalis): 1 µg/mL
- MIC (Staphylococcus aureus [16]): 1 µg/mL
- MIC (Corynebacterium sp.): 1 µg/mL

SMILES: C[C@]12CC[C@H](O)CC1=CC[C@@H]1[C@@H]2CC[C@]2(C)c3nc(N)nc(-c4ccccc4Cl)c3C[C@@H]12
- IC50 (SGC-7901): 10.6 µM
- IC50 (HepG2 [20]): 5.41 µM
- IC50 (Huh-7): 5.65 µM

SMILES: C[C@]12CC[C@H](O)CC1=CC[C@@H]1[C@@H]2CC[C@]2(C)c3nc(NCc4ccc(Cl)cc4)sc3C[C@@H]12
- IC50 (EC9706): 39.3 µM
- IC50 (MGC-803): 10.3 µM
- IC50 (ECa-109 cell line): 0.196 µM

SMILES: COc1cc2c(cc1O)CC[C@@H]1[C@@H]2CC[C@]2(C)[C@@H](c3cn(-c4ccc(C(F)(F)F)cc4)nn3)CC[C@@H]12
- IC50 [21]: 1.9 µM
- IC50 (K562): 1 µM
- IC50 (OVCAR-3): 1.4 µM
- IC50 (Tubulin): 8.1 µM

SMILES: COc1cc2c(cc1O)CC[C@@H]1[C@@H]2CC[C@]2(C)[C@@H](c3cn(-c4ccc(OC(F)(F)F)cc4)nn3)CC[C@@H]12
- IC50 [21]: 2.9 µM
- IC50 (K562): 0.7 µM
- IC50 (OVCAR-3): 0.9 µM
- IC50 (Tubulin): 5.9 µM

SMILES: CC(=O)N1N=C(C2=CC[C@H]3[C@@H]4CC=C5C[C@@H](O)CC[C@]5(C)[C@H]4CC[C@]23C)C[C@H]1c1ccc(F)cc1
- IC50 [17]: 0.0139 µM
- IC50 [18]: 0.0273 µM

SMILES: C[C@]12CC[C@H](O)CC1=CC[C@@H]1[C@@H]2CC[C@]2(C)C3=NN(c4ccc(C#N)cc4)C[C@@H]3C[C@@H]12
- IC50 (MCF7 [22]): 1.1 µM
- IC50 (T47D): 1.45 µM
- IC50 (MDA-MB-361): 0.94 µM

SMILES: C[C@]12CC[C@H]3[C@@H](CC=C4C[C@@H](O)CC[C@@]43C)[C@@H]1CC[C@@H]2c1cc(-c2ccc(O)cc2)c(C#N)c(N)n1
- IC50 (MCF7 [23]): 8.81 µM
- IC50 (HepG2 [24]): 12.4 µM
- IC50 (HeLa [3]): 8.14 µM
- IC50 (SK-OV-3): 5.08 µM
